The record followed here is patent publication US9029544B2, “Tricyclic pyridine derivatives, medicaments containing such compounds, their use and process for their preparation” (Boehringer Ingelheim International GmbH, priority 2010, dated 2015).

SMILES strings stand for the structures.

For this test, the target named is T1, Recombinant human CETP (Homo sapiens, UniProt P11597).
T1 construct: made in house; host or cells: CHO cells (secreted into conditioned medium)
T1 sequence (P11597 18-493): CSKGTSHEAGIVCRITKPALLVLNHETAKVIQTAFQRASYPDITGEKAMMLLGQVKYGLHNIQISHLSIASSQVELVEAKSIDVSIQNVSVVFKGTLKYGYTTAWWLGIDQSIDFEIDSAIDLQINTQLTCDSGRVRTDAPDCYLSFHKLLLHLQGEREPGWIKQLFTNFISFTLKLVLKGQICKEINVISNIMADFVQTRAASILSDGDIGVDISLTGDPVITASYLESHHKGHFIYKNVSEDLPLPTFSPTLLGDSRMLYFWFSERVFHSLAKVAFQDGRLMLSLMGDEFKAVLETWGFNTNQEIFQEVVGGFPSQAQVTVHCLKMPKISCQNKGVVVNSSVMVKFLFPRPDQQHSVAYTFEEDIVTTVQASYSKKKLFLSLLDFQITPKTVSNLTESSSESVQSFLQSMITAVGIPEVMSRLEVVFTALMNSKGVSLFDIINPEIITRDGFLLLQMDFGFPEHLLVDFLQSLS
Briefly: CETP in vitro assay (fluorometric assay, Roar Biomedical; cholesterol ester transfer from HDL to LDL). It counts as biochemical. The settings on record: recombinant human CETP from CHO cells; 3 hours at 37° C.; fluorescence 485/535 nm; compound concentrations between 1 nM and 30 μM; read-out: IC50 values for inhibition of CETP. The procedure: CETP inhibitory activity of compounds of the present invention can be determined in a fluorometric assay purchased from Roar Biomedical, Inc. (New York, N.Y., USA). […] Recombinant human CETP was partially purified from medium conditioned by CETP expressing CHO cells. In a 384 well format 2.5 μl of compound solution in DMSO was combined with 2 μl of donor solution, 2 μl of acceptor solution and 0.8 μl of recombinant human CETP solution in a total volume of 100 μl with assay buffer and incubated for 3 hours at 37° C. The fluorescence intensity was measured at excitation wavelength of 485 nm and emission wavelength of 535 nm. IC50 values are calculated from dose effect curves from compound concentrations between 1 nM and 30 μM.
As for `CC(C)c1nc2c(c3c1[C@@H](c1ccc(C(C)(C)C)cc1)OC31CCCC1)[C@@H](O)CC(C)(C)[C@@H]2O` [4(4), (3′R,6′S,9′S)-3′-(4-tert-butylphenyl)-4′-isopropyl-7′,7′-dimethyl-6′,7′,8′,9′-tetrahydro-3′H-spiro[cyclopentane-1,1′-furo[3,4-c]quinoline]-6′,9′-diol], the IC50 was 207 nM.

Turning to `CC(C)c1nc2c(c3c1[C@@H](c1ccc(C(F)(F)F)cc1F)OC31CCOCC1)[C@@H](O)CC(C)(C)[C@H]2O` [4(5), (3S,6R,9S)-3-(2-fluoro-4-(trifluoromethyl)phenyl)-4-isopropyl-7,7-dimethyl-2′,3′,5′,6,6′,7,8,9-octahydro-3H-spiro[furo[3,4-c]quinoline-1,4′-pyran]-6,9-diol], the IC50 worked out at 15 nM.

For `CC1(C)C[C@H](O)c2c(nc(C3CCOCC3)c3c2C2(CCCC2)O[C@@H]3c2ccc(S(F)(F)(F)(F)F)cc2)[C@@H]1O` [4(6), (3′R,6′R,9′S)-7′,7′-dimethyl-4′-(tetrahydro-2H-pyran-4-yl)-3′-(4-(pentafluorosulfanyl)phenyl)-6′,7′,8′,9′-tetrahydro-3′H-spiro[cyclopentane-1,1′-furo[3,4-c]quinoline]-6′,9′-diol], the IC50 was 19 nM.

Take `CC(C)c1nc2c(c3c1[C@@H](c1ccc(S(F)(F)(F)(F)F)cc1)OC31CCOCC1)[C@@H](O)CC(C)(C)[C@H]2O` [4(7), (3R,6R,9S)-4-isopropyl-7,7-dimethyl-3-(4-(pentafluorosulfanyl)phenyl)-2′,3′,5′,6,6′,7,8,9-octahydro-3H-spiro[furo[3,4-c]quinoline-1,4′-pyran]-6,9-diol]: the IC50 was 12 nM.

For `CC(C)c1nc2c(c3c1[C@@H](c1ccc(S(F)(F)(F)(F)F)cc1)OC31CCOCC1)[C@@H](O)CC1(CCC1)[C@H]2O` [4(8), (3R,6R,9S)-4-isopropyl-7,7-(propan-1,3-diyl)-3-(4-(pentafluorosulfanyl)phenyl)-2′,3′,5′,6,6′,7,8,9-octahydro-3H-spiro[furo[3,4-c]quinoline-1,4′-pyran]-6,9-diol], the IC50 is 14 nM.

Take `CC1(C)C[C@H](O)c2c(nc(C3CCOCC3)c3c2C2(CCOCC2)O[C@@H]3c2ccc(C(F)(F)F)c(C#N)c2)[C@@H]1O` [4(9), 5-((3R,6R,9S)-6,9-dihydroxy-7,7-dimethyl-4-(tetrahydro-2H-pyran-4-yl)-2′,3′,5′,6,6′,7,8,9-octahydro-3H-spiro[furo[3,4-c]quinoline-1,4′-pyran]-3-yl)-2-(trifluoromethyl)benzonitrile]: the IC50 was 147 nM.

Regarding `CC(C)c1nc2c(c3c1[C@@H](c1ccc(C(F)(F)F)c(C#N)c1)OC31CCOCC1)[C@@H](O)CC1(CCC1)[C@H]2O` [4(10), 5-((3R,6R,9S)-6,9-dihydroxy-4-isopropyl-7,7-(propan-1,3-diyl)-2′,3′,5′,6,6′,7,8,9-octahydro-3H-spiro[furo[3,4-c]quinoline-1,4′-pyran]-3-yl)-2-(trifluoromethyl)benzonitrile], the IC50 turned out to be 15 nM.

For the molecule `CC1(C)C[C@H](O)c2c(nc(C3CCOCC3)c3c2C2(CCOCC2)O[C@@H]3c2ccc(C(F)(F)F)cc2)[C@@H]1O` [4(11), (3R,6R,9S)-7,7-dimethyl-4-(tetrahydro-2H-pyran-4-yl)-3-(4-(trifluoromethyl)phenyl)-2′,3′,5′,6,6′,7,8,9-octahydro-3H-spiro[furo[3,4-c]quinoline-1,4′-pyran]-6,9-diol], the IC50 turned out to be 255 nM.

As to `CC1(C)C[C@H](O)c2c(nc(C3CCOCC3)c3c2C2(CCOCC2)O[C@@H]3c2ccc(S(F)(F)(F)(F)F)cc2)[C@@H]1O` [4(12), (3R,6R,9S)-7,7-dimethyl-4-(tetrahydro-2H-pyran-4-yl)-3-(4-(pentafluorosulfanyl)phenyl)-2′,3′,5′,6,6′,7,8,9-octahydro-3H-spiro[furo[3,4-c]quinoline-1,4′-pyran]-6,9-diol], the IC50 amounted to 70 nM.

With `CC(C)(C)c1ccc([C@H]2OC3(CCOCC3)c3c2c(C2CCOCC2)nc2c3[C@@H](O)CC(C)(C)[C@H]2O)cc1` [4(13), (3R,6R,9S)-3-(4-tert-butylphenyl)-7,7-dimethyl-4-(tetrahydro-2H-pyran-4-yl)-2′,3′,5′,6,6′,7,8,9-octahydro-3H-spiro[furo[3,4-c]quinoline-1,4′-pyran]-6,9-diol], the half-inhibitory concentration (IC50) is 51 nM.

On to `N#Cc1cc([C@H]2OC3(CCOCC3)c3c2c(C2CCOCC2)nc2c3[C@@H](O)CC3(CCC3)[C@H]2O)ccc1C(F)(F)F` [4(14), 5-((3R,6R,9S)-6,9-dihydroxy-7,7-(propan-1,3-diyl)-4-(tetrahydro-2H-pyran-4-yl)-2′,3′,5′,6,6′,7,8,9-octahydro-3H-spiro[furo[3,4-c]quinoline-1,4′-pyran]-3-yl)-2-(trifluoromethyl)benzonitrile], for which the IC50 amounted to 65 nM.

In the case of `CC(C)c1nc2c(c3c1[C@@H](c1ccc(C(F)(F)F)c(C#N)c1)OC31CCOCC1)[C@@H](O)CC(C)(C)[C@H]2O` [4(15), 5-((3R,6R,9S)-6,9-dihydroxy-4-isopropyl-7,7-dimethyl-2′,3′,5′,6,6′,7,8,9-octahydro-3H-spiro[furo[3,4-c]quinoline-1,4′-pyran]-3-yl)-2-(trifluoromethyl)benzonitrile], the IC50 worked out at 27 nM.

Turning to `O[C@H]1CC2(CCC2)[C@@H](O)c2nc(C3CCOCC3)c3c(c21)C1(CCOCC1)O[C@@H]3c1ccc(C(F)(F)F)cc1` [4(16), (3R,6R,9S)-7,7-(propan-1,3-diyl)-4-(tetrahydro-2H-pyran-4-yl)-3-(4-(trifluoromethyl)phenyl)-2′,3′,5′,6,6′,7,8,9-octahydro-3H-spiro[furo[3,4-c]quinoline-1,4′-pyran]-6,9-diol], the IC50 was 44 nM.

Turning to `CC(C)c1nc2c(c3c1[C@@H](c1ccc(C(F)(F)F)cc1)OC31CCOCC1)[C@@H](O)CC1(CCC1)[C@H]2O` [5(1), (3R,6R,9S)-4-isopropyl-7,7-(propan-1,3-diyl)-3-(4-(trifluoromethyl)phenyl)-2′,3′,5′,6,6′,7,8,9-octahydro-3H-spiro[furo[3,4-c]quinoline-1,4′-pyran]-6,9-diol], the IC50 stood at 78 nM.

Regarding `CC(C)c1nc2c(c3c1[C@@H](c1ncc(C(F)(F)F)cc1F)OC31CCOCC1)[C@@H](O)CC(C)(C)C2` [5(2), (3S,9S)-3-(3-fluoro-5-(trifluoromethyl)pyridin-2-yl)-4-isopropyl-7,7-dimethyl-2′,3′,5′,6,6′,7,8,9-octahydro-3H-spiro[furo[3,4-c]quinoline-1,4′-pyran]-9-ol], the IC50 was found to be 206 nM.

Consider `CC(C)c1nc2c(c3c1[C@@H](c1ccc(C(F)(F)F)cn1)OC31CCOCC1)[C@@H](O)CC(C)(C)[C@@H]2O` [5(3), (3S,6S,9S)-4-isopropyl-7,7-dimethyl-3-(5-(trifluoromethyl)pyridin-2-yl)-2′,3′,5′,6,6′,7,8,9-octahydro-3H-spiro[furo[3,4-c]quinoline-1,4′-pyran]-6,9-diol], for which the IC50 is 2700 nM.

Regarding `CC(C)c1nc2c(c3c1[C@@H](c1ccc(C(F)(F)F)cn1)OC31CCOCC1)[C@@H](O)CC(C)(C)[C@H]2O` [5(4), (3S,6R,9S)-4-isopropyl-7,7-dimethyl-3-(5-(trifluoromethyl)pyridin-2-yl)-2′,3′,5′,6,6′,7,8,9-octahydro-3H-spiro[furo[3,4-c]quinoline-1,4′-pyran]-6,9-diol], the IC50 was determined as 183 nM.

Regarding `CC(C)c1nc2c(c3c1[C@@H](c1ccc(C(F)(F)F)nc1)OC31CCOCC1)[C@@H](O)CC(C)(C)[C@H]2O` [5(5), (3R,6R,9S)-4-isopropyl-7,7-dimethyl-3-(6-(trifluoromethyl)pyridin-3-yl)-2′,3′,5′,6,6′,7,8,9-octahydro-3H-spiro[furo[3,4-c]quinoline-1,4′-pyran]-6,9-diol], the IC50 came out at 418 nM.

In the case of `CC(C)c1nc2c(c3c1[C@@H](c1ccc(C(F)(F)F)c(F)c1)OC31CCOCC1)[C@@H](O)CC(C)(C)[C@H]2O` [5(6), (3R,6R,9S)-3-(3-fluoro-4-(trifluoromethyl)phenyl)-4-isopropyl-7,7-dimethyl-2′,3′,5′,6,6′,7,8,9-octahydro-3H-spiro[furo[3,4-c]quinoline-1,4′-pyran]-6,9-diol], the IC50 was found to be 13 nM.

Consider `CC(C)c1nc2c(c3c1[C@@H](c1ccc(C(F)(F)F)nc1)OC31CCOCC1)[C@@H](O)CC(C)(C)[C@@H]2O` [5(7), (3R,6S,9S)-4-isopropyl-7,7-dimethyl-3-(6-(trifluoromethyl)pyridin-3-yl)-2′,3′,5′,6,6′,7,8,9-octahydro-3H-spiro[furo[3,4-c]quinoline-1,4′-pyran]-6,9-diol], for which the IC50 came out at 4120 nM.

For the molecule `CC(C)c1nc2c(c3c1[C@@H](c1ccc(C(F)(F)F)cn1)OC31CCOCC1)[C@@H](O)CC1(CCC1)[C@H]2O` [5(8), (3S,6R,9S)-4-isopropyl-7,7-(propan-1,3-diyl)-3-(5-(trifluoromethyl)pyridin-2-yl)-2′,3′,5′,6,6′,7,8,9-octahydro-3H-spiro[furo[3,4-c]quinoline-1,4′-pyran]-6,9-diol], the IC50 was 42 nM.
